Values after ≈ are worked out from the molar mass of the structure shown.
Columns and labels:
Type in all cases: cell-based
Ishikawa cells = experiment: […]-GLO luminescent cell viability assay, Ishikawa; conditions: Homo sapiens, 72 h at 37° C., 5000 cells/well
Description: (§1) All the compounds were tested in the three cell lines. Different concentrations of compounds, ranging from about 0.01 nM to about 100,000 nM were delivered to […] cells per well, which were then incubated for three days at 37° C., followed by CTG assay.
(§2) In this assay, the number of viable cells in culture is determined based on the quantification of ATP present, which signals the presence of metabolically active cells. Damaged cells are not detected as the ATP leaked from these cells is quickly consumed by ATPases that are also released upon damage). The amount of ATP is determined using a system based on luciferase and D-luciferin resulting in light generation.
(§3) The cell lines were plated in 13, 96 well plates at a density of 5000 cells/well in total volumes of 50 μL in phenol-red free medium and incubated for overnight.
(§4) 25 μL of 40 nM estradiol should be added to all appropriate wells on the plate. […] 25 μL of stocks (containing the compounds to be tested, DMSO and phenol-red free medium) were added to cells and medium already on plate. 50 μL of medium were added to media wells, and 50 μL of mix (contain 32 mL DMSO+768 mL phenol-red free medium) to all vehicle control wells.
(§5) Luminescence results were read on TriLux Luminometer. The luminescent signal is proportional to the number of active cells present in culture. […] As a consequence, the number of metabolically active cells can be directly derived from the luminescent signal using a specific calibration curve. Data were expressed as percentage of untreated control (i.e. treatment value-blank/vehicle value blank), mean±SE for three replications.

[1] = system: MDA-MB-231 estrogen receptor-negative breast cancer cell line; experiment: […]-GLO luminescent cell viability assay, MDA-MB-231; conditions: Homo sapiens, MDA-MB-231, 72 h at 37° C., 5000 cells/well
Description: as §1, §2, §3, §4, §5

[2] = system: MCF-7 estrogen receptor-positive breast cancer cells; experiment: […]-GLO luminescent cell viability assay, MCF-7; conditions: Homo sapiens, MCF7, MCF-7, 72 h at 37° C., 5000 cells/well
Description: as §1, §2, §3, §4, §5

CCc1ccc(C(=O)NN2CCc3c(Br)ccc(Br)c3C2)cc1 [Redda-EVK-I-079, N-(5,8-Dibromo-3,4-dihydroisoquinolin-2(1H)-yl)-4-ethylbenzamide]
IC50 (Ishikawa cells): 0.84 µg/mL (≈ 1.92 µM)
IC50 [1]: 1.71 µg/mL (≈ 3.9 µM)
IC50 [2]: 2.34 µg/mL (≈ 5.34 µM)

CCc1ccc(C(=O)NN2CCc3ccc(OC)cc3C2)cc1 [Redda-EVK-I-074, 4-Ethyl-N-(7-methoxy-3,4-dihydroisoquinolin-2(1H)-yl)benzamide]
IC50 (Ishikawa cells): 0.11 µg/mL (≈ 0.354 µM)
IC50 [1]: 0.23 µg/mL (≈ 0.741 µM)
IC50 [2]: 0.25 µg/mL (≈ 0.805 µM)

CCc1ccc(C(=O)NN2CCc3ccc(O)cc3C2)cc1 [Redda-GM-4-53, 4-Ethyl-N-(7-hydroxy-3,4-dihydroisoquinolin-2-(1H)-yl)benzamide]
IC50 (Ishikawa cells): 0.08 µg/mL (≈ 0.27 µM)
IC50 [1]: 0.13 µg/mL (≈ 0.439 µM)
IC50 [2]: 0.2 µg/mL (≈ 0.675 µM)

CCCc1ccc(C(=O)NN2CCc3ccccc3C2)cc1 [Redda-GM-3-122, N-(3,4-Dihydroxyisoquinolin-2(1H)-yl)-4-propylbenzamide]
IC50 (Ishikawa cells): 0.75 µg/mL (≈ 2.55 µM)
IC50 [1]: 3.26 µg/mL (≈ 11.1 µM)
IC50 [2]: 3.71 µg/mL (≈ 12.6 µM)

O=C(NN1CCc2ccccc2C1)c1ccc(C(F)(F)F)cc1 [Redda-GM-3-143, N-(3,4-Dihydroisoquinolin-2-(1H)-yl)-4-(trifluoromethyl)benzamide]
IC50 (Ishikawa cells): 0.5 µg/mL (≈ 1.56 µM)
IC50 [1]: 4.85 µg/mL (≈ 15.1 µM)
IC50 [2]: 3.15 µg/mL (≈ 9.83 µM)

CCCCc1ccc(C(=O)NN2CCc3ccccc3C2)cc1 [Redda-GM-3-156, 4-Butyl-N-(3,4-dihydrozyisoquinolin-2(1H)-yl)benzamide]
IC50 (Ishikawa cells): 0.96 µg/mL (≈ 3.11 µM)
IC50 [1]: 7.03 µg/mL (≈ 22.8 µM)
IC50 [2]: 3.05 µg/mL (≈ 9.89 µM)

CCc1ccc(C(=O)NN2CCc3ccccc3C2)cc1 [Redda-GM-3-121, N-(3,4-Dihydroisoquinolin-2(1H)-yl)-4-ethylbenzamide]
IC50 (Ishikawa cells): 0.01 µg/mL (≈ 0.0357 µM)
IC50 [1]: 0.37 µg/mL (≈ 1.32 µM)
IC50 [2]: 0.43 µg/mL (≈ 1.53 µM)

CCc1ccc(C(=O)NN2CCc3c(cccc3OC)C2)cc1 [Redda-EVK-I-062, 4-Ethyl-N-(5-methoxy-3,4-dihydroisoquinolin-2(1H)-yl)benzamide]
IC50 (Ishikawa cells): 6.34 µg/mL (≈ 20.4 µM)
IC50 [1]: 10.5 µg/mL (≈ 33.7 µM)
IC50 [2]: 7.38 µg/mL (≈ 23.8 µM)

CCc1ccc(C(=O)NN2CCc3c(Br)cccc3C2)cc1 [Redda-GM-4-62, N-(5-Bromo-3,4-dihyroisoquinolin-2(1H)-yl)-4-ethylbenzamide]
IC50 (Ishikawa cells): 1.15 µg/mL (≈ 3.2 µM)
IC50 [1]: 6.01 µg/mL (≈ 16.7 µM)
IC50 [2]: 3.5 µg/mL (≈ 9.74 µM)

CC(C)(C)c1ccc(C(=O)NN2CCc3ccc(O)cc3C2)cc1 [Redda-GM-4-40, 4-(tert-Butyl)-N-(7-hydroxy-3,4-dihydroisoquinolin-2(1H)-yl)benzamide]
IC50 (Ishikawa cells): 0.95 µg/mL (≈ 2.93 µM)
IC50 [1]: 4.7 µg/mL (≈ 14.5 µM)
IC50 [2]: 2.3 µg/mL (≈ 7.09 µM)

O=C(NN1CCc2ccccc2C1)c1ccc(Br)cc1 [Redda-GM-3-135, 4-Bromo-N-(3,4-dihydroisoquinolin-2(1H)-yl)benzamide]
IC50 (Ishikawa cells): 0.02 µg/mL (≈ 0.0604 µM)
IC50 [1]: 4.34 µg/mL (≈ 13.1 µM)
IC50 [2]: 0.7 µg/mL (≈ 2.11 µM)

O=C(NN1CCc2ccccc2C1)c1nc2ccccc2s1 [Redda-GM-3-177, N-(3,4-Dihydroisoquinolin-2-(1H)-yl)benzo[d]thiazole-2-carboxamide]
IC50 (Ishikawa cells): 8.98 µg/mL (≈ 29 µM)
IC50 [1]: 13.1 µg/mL (≈ 42.4 µM)
IC50 [2]: 15 µg/mL (≈ 48.5 µM)
